# Test results reported in ChEMBL document CHEMBL6120996, “Discovery and optimization of 1,2,4-triazole derivatives as novel ferroptosis inhibitors” (Eur J Med Chem, 2025).
# pEC50: −log10 of the molar value. The source made the active and inactive calls. No cut-off for these calls is given here.
# Columns and labels:
# [1] = system: SK-HEP1; assay: Inhibition of RSL3 induced lipid-ROS accumulation in human SK-HEP1 cells at 1 uM incubated for 2.5 hrs by C11-BODIPY 581/591 staining coupled with flow cytometry analysis; type: functional, cell-based
# [2] = system: 786-0; assay: Effect on TFRC expression in human 786-0 cells in presence of 0.25 uM RSL3 at 1 uM incubated for 2.5 hrs by Western blot analysis; type: functional, cell-based
# [3] = Microsomal stability in human liver microsomes assessed as hepatic extraction ratio at 0.1 uM by LC-MS/MS analysis; type: ADME, Microsome; conditions: read-out: ERH
# [4] = system: HT-1080; assay: Anti-ferroptotic activity in human GPX4 knockout HT-1080 cells assessed as cell viability at 1 uM incubated for 24 hrs by CellTiter-LumiTM plus luminescent cell viability assay; type: functional, cell-based
# [5] = system: 786-0; assay: Effect on GPX4 expression in human 786-0 cells at 1 uM incubated for 2.5 hrs by Western blot analysis; type: functional, cell-based
# [6] = system: 786-0; assay: Inhibition of H2O2 induced necrosis in human 786-0 cells assessed as cell viability at 1 uM incubated for 24 hrs by CellTiter-LumiTM assay; type: functional, cell-based
# [7] = system: 786-0; assay: Effect on ACSL4 expression in human 786-0 cells at 1 uM incubated for 2.5 hrs by Western blot analysis; type: functional, cell-based
# [8] = system: 786-0; assay: Inhibition of RSL3 induced ferroptosis in human 786-0 cells assessed as cell viability in presence of iFSP1 at 1 uM measured after 24 hrs by CellTiter-LumiTM assay; type: functional, cell-based
# [9] = Inhibition of RSL3 induced ferroptosis in human MHCC97H cells assessed as cell viability incubated for 24 hrs by CellTiter-LumiTM assay; type: functional, cell-based
# [10] = system: 786-0; assay: Effect on IRP1 expression in human 786-0 cells in presence of 0.25 uM RSL3 at 1 uM incubated for 2.5 hrs by Western blot analysis; type: functional, cell-based
# [11] = system: 786-0; assay: Inhibition of STS induced apoptosis in human 786-0 cells assessed as cell viability at 1 uM incubated for 24 hrs by CellTiter-LumiTM assay; type: functional, cell-based
# [12] = system: 786-0; assay: Inhibition of RSL3-induced ferroptosis in human 786-0 cells assessed as cell viability by assessing cell morphology incubated for 24 hrs by CellTiter-LumiTM plus luminescent cell viability assay; type: functional, cell-based; conditions: 786-0, 24 h
# [13] = system: Mus musculus; assay: Anti-ferroptotic activity in ConA-induced C57 mouse liver injury model assessed as reduction in ALT levels in serum at 10 mg/kg, ip pre-treated 1 day followed by treated with ConA measured after 24 hrs; type: functional, organism-based; conditions: time 2.0 day
# [14] = system: 786-0; assay: Effect on FTL expression in human 786-0 cells at 1 uM incubated for 2.5 hrs by western blot analysis; type: functional, cell-based
# [15] = system: Mus musculus; assay: Anti-ferroptotic activity in ConA-induced C57 mouse acute liver injury model assessed as assessed as reduction in 4-HNE accumulation in liver tissue at 10 mg/kg, ip pre-administered one day followed by treated with ConA measured after 24 hrs by 4-HNE staining based analysis; type: functional, organism-based; conditions: time 48.0 hrs
# [16] = system: 786-0; assay: Effect on FTH1 expression in human 786-0 cells at 1 uM incubated for 2.5 hrs by western blot analysis; type: functional, cell-based
# [17] = system: 786-0; assay: Effect on FTL expression in human 786-0 cells in presence of 0.25 uM RSL3 at 1 uM incubated for 2.5 hrs by Western blot analysis; type: functional, cell-based
# [18] = system: Mus musculus; assay: Anti-ferroptotic activity in ConA-induced C57 mouse liver injury model assessed as reduction in AST levels in serum at 10 mg/kg, ip pre-treated 1 day followed by challenged with ConA measured after 24 hrs; type: functional, organism-based
# [19] = Microsomal stability in rat liver microsomes assessed as half life at 0.1 uM by LC-MS/MS analysis; type: ADME, Microsome; conditions: microsomes, 0.1 µM
# [20] = system: 786-0; assay: Inhibition of RSL3 induced lipid-ROS accumulation in human 786-0 cells incubated for 2.5 hrs by C11-BODIPY 581/591 staining coupled with flow cytometry analysis; type: functional, cell-based; conditions: dose 0.1-1 µM
# [21] = Metabolic stability in human plasma assessed as half life at 1 uM by LC-MS/MS analysis; type: ADME, cell-free
# [22] = system: 786-0; assay: Effect on FTH1 expression in human 786-0 cells in presence of 0.25 uM RSL3 at 1 uM incubated for 2.5 hrs by Western blot analysis; type: functional, cell-based
# [23] = Inhibition of RSL3 induced ferroptosis in H9c2 cells assessed as cell viability incubated for 24 hrs by CellTiter-LumiTM assay; type: functional, cell-based; conditions: Rattus norvegicus, H9c2, 24 h
# [24] = system: 786-0; assay: Effect on SLC7A11 expression in human 786-0 cells at 1 uM incubated for 2.5 hrs by Western blot analysis; type: functional, cell-based
# [25] = Inhibition of erastin induced ferroptosis in human 786-0 cells assessed as cell viability incubated for 24 hrs by CellTiter-LumiTM assay; type: functional, cell-based; conditions: 786-0, 24 h
# [26] = system: 786-0; assay: Effect on TFRC expression in human 786-0 cells at 1 uM incubated for 2.5 hrs by Western blot analysis; type: functional, cell-based
# [27] = system: Mus musculus; assay: Anti-ferroptotic activity in ConA-induced C57 mouse acute liver injury model assessed as assessed as reduction in PTGS2 mRNA levels in liver tissue at 10 mg/kg, ip pre-administered one day followed by treated with ConA measured after 24 hrs by qRT-PCR analysis; type: functional, organism-based; conditions: time 48.0 hrs
# [28] = Metabolic stability in rat plasma assessed as half life at 1 uM by LC-MS/MS analysis; type: ADME, cell-free
# [29] = Microsomal stability in human liver microsomes assessed as half life at 0.1 uM by LC-MS/MS analysis; type: ADME, Microsome; conditions: microsomes, 0.1 µM
# [30] = Antioxidant activity assessed as free radical scavenging activity incubated for 30 mins in dark by DPPH assay relative to control; type: functional
# [31] = system: Mus musculus; assay: Anti-ferroptotic activity in ConA-induced C57 mouse acute liver injury model assessed as reduction in malondialdehyde levels at 10 mg/kg, ip pre-administered one day followed by treated with ConA measured after 24 hrs by MDA kit assay; type: functional, organism-based; conditions: time 48.0 hrs
# [32] = system: 786-0; assay: Inhibition of RSL3-induced ferroptosis in human 786-0 cells assessed as cell viability incubated for 24 hrs by CellTiter-LumiTM assay; type: functional, cell-based; conditions: 786-0, 24 h
# [33] = Microsomal stability in rat liver microsomes assessed as hepatic extraction ratio at 0.1 uM by LC-MS/MS analysis; type: ADME, Microsome; conditions: read-out: ERH
# [34] = system: 786-0; assay: Inhibition of RSL3 induced lipid-ROS accumulation in human 786-0 cells assessed as fast elimination at 1 uM measured after 0.25 to 2.5 hrs by C11-BODIPY 581/591 staining coupled with flow cytometry analysis; type: functional, cell-based; conditions: time 0.25-2.5 hrs
# [35] = Suppression of autoxidation of liposomes egg ( unknown origin) phosphatidylcholine lipids as substrate at 0.1 to 2.5 uM incubated for 5 min by C11-BODIPY 581/591 dye based fluorescent assay; type: functional; conditions: dose 0.1-2.5 µM
# [36] = system: 786-0; assay: Cytotoxicity against human 786-0 cells assessed as cell viability incubated for 24 hrs by CellTiter-LumiTM assay; type: functional
# [37] = system: SK-HEP1; assay: Inhibition of RSL3 induced lipid-ROS accumulation in human SK-HEP1 cells at 1 uM incubated for 0.5 hrs by C11-BODIPY 581/591 staining coupled with flow cytometry analysis; type: functional, cell-based
# [38] = system: 786-0; assay: Effect on IRP1 expression in human 786-0 cells at 1 uM incubated for 2.5 hrs by western blot analysis; type: functional, cell-based
# [39] = Inhibition of RSL3 induced ferroptosis in human HT-1080 cells assessed as cell viability incubated for 24 hrs by CellTiter-LumiTM assay; type: functional, cell-based; conditions: HT-1080, 24 h
# [40] = system: Mus musculus; assay: Anti-ferroptotic activity in ConA-induced C57 mouse liver injury model assessed as decrease in acute liver injury at 10 mg/kg, ip pre-administered one day followed by treated with ConA measured after 24 hrs by HE staining based analysis; type: functional, organism-based; conditions: time 48.0 hrs
# [41] = system: 786-0; assay: Effect on erastin-induced decrease in GSH level in human 786-0 cells at 1 uM incubated for 10 hrs by Total intracellular GSH assay; type: functional, cell-based
# [42] = system: 786-0; assay: Metal chelating activity assessed as Fe2+ chelation in human 786-0 cells assessed as intracellular ferrous ion level at 1 uM by FerroOrange fluorescent probe based assay; type: cell-based
# [43] = Inhibition of RSL3 induced ferroptosis in human SK-HEP1 cells assessed as cell viability incubated for 24 hrs by CellTiter-LumiTM assay; type: functional, cell-based; conditions: SK-HEP1, 24 h
# [44] = Microsomal stability in human liver microsomes assessed as hepatic extraction ratio at 1 uM by LC-MS/MS analysis; type: ADME, Microsome; conditions: read-out: ERH
# [45] = Microsomal stability in rat liver microsomes assessed as hepatic extraction ratio at 1 uM by LC-MS/MS analysis; type: ADME, Microsome; conditions: read-out: ERH
# [46] = Microsomal stability in human liver microsomes assessed as hepatic clearance at 1 uM by LC-MS/MS analysis; type: ADME, Microsome
# [47] = system: 786-0; assay: Inhibition of RSL3-induced ferroptosis in human 786-0 cells assessed as cell protection by assessing cell morphology at 1 uM incubated for 24 hrs; type: functional, cell-based
# [48] = system: 786-0; assay: Metal chelating activity assessed as Fe2+ chelation in human 786-0 cells assessed as intracellular ferrous ion level at 100 uM by FerroOrange fluorescent probe based assay; type: cell-based
# [49] = Metal chelating activity assessed as Fe2+ chelation assessed as absorbance peak at 430 nm by UV-vis spectroscopy; conditions: dose 1.0 µM
structure (smiles),measurement,setting,value
COc1ccc(COc2c(OC)cccc2C2N(c3ccccc3)N=C(C(C)=O)N2c2ccc(N(C)C)cc2)cc1 (stereo not given),inhibition,[1],Active
same,Activity,[2],inactive
same,hepatic extraction ratio at 0.1 µM,[3],0.99
same,Activity,[4],Active
same,Activity,[5],No effect
same,inhibition,[6],inactive
same,Activity,[7],No effect
same,inhibition,[8],Active
same,pEC50,[9],6.46
same,Activity,[10],inactive
same,inhibition,[11],inactive
same,pEC50,[12],7.08
same,Activity,[13],Active
same,Activity,[14],No effect
same,Activity,[15],Active
same,Activity,[16],No effect
same,Activity,[17],inactive
same,Activity,[18],Active
same,t1/2,[19],1.66 min
same,inhibition,[20],Dose-dependent-effect
same,half-life at 1 µM,[21],23.9 h
same,Activity,[22],inactive
same,pEC50,[23],6.85
same,Activity,[24],No effect
same,pEC50,[25],7.27
same,Activity,[26],No effect
same,Activity,[27],Active
same,half-life at 1 µM,[28],4.97 h
same,t1/2,[29],4.02 min
same,Activity,[30],Active
same,Activity,[31],Active
same,pEC50,[32],7.10
same,hepatic extraction ratio at 0.1 µM,[33],0.993
same,inhibition,[34],Active; Eliminated As Fast As Fer-1
same,Activity,[35],Dose-dependent-effect
same,CC50,[36],> 10000 nM
same,inhibition,[37],Active
same,Activity,[38],No effect
same,pEC50,[39],7.13
same,Activity,[40],Active
same,Activity,[41],inactive
same,Activity,[42],inactive
same,pEC50,[43],6.79
C[C@]12CC[C@H]3[C@@H](CCC4=CC(=O)CC[C@@]43C)[C@@H]1CC[C@@H]2O [TESTOSTERONE],hepatic extraction ratio at 1 µM,[44],0.935
same,hepatic extraction ratio at 1 µM,[45],0.994
same,CLhep predicted at 1 µM,[46],19.3 mL/min/kg
COC(=O)c1ccc(COc2c(OC)cccc2C2N(c3ccccc3)N=C(C(C)=O)N2c2ccc(N(C)C)cc2)cc1 (stereo not given),inhibition,[1],Active
same,Activity,[2],inactive
same,Activity,[4],Active
same,Activity,[5],inactive
same,inhibition,[6],inactive
same,Activity,[7],inactive
same,inhibition,[8],Active
same,pEC50,[9],6.20
same,Activity,[10],inactive
same,inhibition,[11],inactive
same,pEC50,[12],7.04
same,Activity,[14],inactive
same,Activity,[16],inactive
same,Activity,[47],Active
same,Activity,[17],inactive
same,inhibition,[20],Dose-dependent-effect
same,Activity,[22],inactive
same,pEC50,[23],6.77
same,Activity,[24],inactive
same,pEC50,[25],7.28
same,Activity,[26],inactive
same,Activity,[30],Active
same,pEC50,[32],7.15
same,inhibition,[34],Active; Eliminated As Fast As Fer-1
same,Activity,[35],Dose-dependent-effect
same,CC50,[36],> 40000 nM
same,inhibition,[37],Active
same,Activity,[38],inactive
same,pEC50,[39],6.50
same,Activity,[41],inactive
same,Activity,[42],inactive
same,pEC50,[43],6.89
CC(=O)N(O)CCCCCNC(=O)CCC(=O)N(O)CCCCCNC(=O)CCC(=O)N(O)CCCCCN,Activity,[48],Active
same,Activity,[49],Active
